Literature values as cited in patent US20040266704A1, “Method comprising irinotecan for treatment of breast cancer” (priority 2003, published 2004).

Columns and labels:
[1] = tested on: advanced or recurrent breast cancer; settings: intravenous drip-infusion; patients with advanced breast cancer
advanced breast cancer = settings: intravenous; patients with prior endocrine therapy and prior chemotherapy including adriamycin or other anthracyclines
[2] = tested on: anthracycline resistant metastatic breast cancer; settings: intravenous salvage therapy; twelve patients, prior chemotherapy including an anthracycline
[3] = tested on: refractory advanced breast cancer; settings: IV, two schedules; 103 patients who failed an anthracycline, a taxane or both; preliminary data
recurrent breast cancer = settings: intravenous; four cases, previous chemotherapy including doxorubicin
[4] = tested on: advanced and metastatic breast cancer pretreated with doxorubicin and docetaxel; settings: intravenous

CCc1c2c(nc3ccc(OC(=O)N4CCC(N5CCCCC5)CC4)cc13)-c1cc3c(c(=O)n1C2)COC(=O)[C@]3(O)CC [CPT-11, [1,4′-Bipiperidine]-1′-carboxylic acid (4S)-4,11-diethyl-3,4,12,14-tetrahydro-4-hydroxy-3,14-dioxo-1H-pyrano[3′,4′:6,7]indolizino[1,2-b]quinolin-9-yl ester]
clinical efficacy against advanced or recurrent breast cancer [1]: effective
clinical efficacy in advanced breast cancer (advanced breast cancer): promising drug
treatment results in metastatic breast cancer [2]: satisfactory
toxicity profile [3]: acceptable toxicity profile
clinical efficacy against advanced or recurrent breast cancer (recurrent breast cancer): effective agent
clinical efficacy in the salvage setting [4]: inactive
